Source: article PMC2951761 (Biochemistry, 2010)
Read-outs that look alike come from different tables or passages of the source.

Assays:
[1] = molecular target: CyaA AC activity (Bordetella pertussis, UniProt P0DKX7); conditions: read-out: Ki CyaA AC activity; cited from earlier work
[2] = molecular target: CyaA CC activity (Bordetella pertussis, UniProt P0DKX7); assay type: biochemical; conditions: read-out: Ki CyaA CC activity
[3] = molecular target: EF CC activity (Bacillus anthracis, UniProt P40136); assay type: biochemical; conditions: read-out: Ki EF CC activity
Sequence of EF CC activity (P40136 whole entry, looked up): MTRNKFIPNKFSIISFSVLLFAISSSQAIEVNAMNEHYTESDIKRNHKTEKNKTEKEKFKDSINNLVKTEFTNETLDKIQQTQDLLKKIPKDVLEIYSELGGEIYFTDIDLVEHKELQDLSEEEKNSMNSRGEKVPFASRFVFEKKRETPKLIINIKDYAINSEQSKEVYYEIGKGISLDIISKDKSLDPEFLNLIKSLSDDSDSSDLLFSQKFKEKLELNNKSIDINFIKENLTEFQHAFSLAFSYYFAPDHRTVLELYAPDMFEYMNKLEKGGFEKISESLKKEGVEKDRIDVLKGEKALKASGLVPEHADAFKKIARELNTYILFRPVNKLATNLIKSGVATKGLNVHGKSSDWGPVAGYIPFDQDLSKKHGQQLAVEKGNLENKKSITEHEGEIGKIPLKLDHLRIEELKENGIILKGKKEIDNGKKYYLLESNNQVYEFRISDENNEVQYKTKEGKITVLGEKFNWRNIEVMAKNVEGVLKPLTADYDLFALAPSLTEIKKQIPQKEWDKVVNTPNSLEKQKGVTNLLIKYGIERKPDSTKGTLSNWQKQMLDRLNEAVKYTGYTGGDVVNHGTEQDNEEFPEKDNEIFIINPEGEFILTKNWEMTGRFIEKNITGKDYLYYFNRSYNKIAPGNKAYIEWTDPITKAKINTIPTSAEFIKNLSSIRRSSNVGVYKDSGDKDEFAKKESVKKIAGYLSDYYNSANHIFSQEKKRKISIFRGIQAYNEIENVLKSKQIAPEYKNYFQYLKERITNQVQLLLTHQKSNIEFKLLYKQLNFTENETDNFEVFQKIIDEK

[4] = molecular target: T1, EF AC activity (Bacillus anthracis, UniProt P40136); assay type: biochemical; conditions: read-out: Ki EF AC activity
T1 sequence (P40136 whole entry, looked up): as above

[5] = molecular target: T1, EF AC activity; conditions: read-out: Ki EF AC activity; cited from earlier work

Sequence of CyaA AC activity (P0DKX7 whole entry, looked up): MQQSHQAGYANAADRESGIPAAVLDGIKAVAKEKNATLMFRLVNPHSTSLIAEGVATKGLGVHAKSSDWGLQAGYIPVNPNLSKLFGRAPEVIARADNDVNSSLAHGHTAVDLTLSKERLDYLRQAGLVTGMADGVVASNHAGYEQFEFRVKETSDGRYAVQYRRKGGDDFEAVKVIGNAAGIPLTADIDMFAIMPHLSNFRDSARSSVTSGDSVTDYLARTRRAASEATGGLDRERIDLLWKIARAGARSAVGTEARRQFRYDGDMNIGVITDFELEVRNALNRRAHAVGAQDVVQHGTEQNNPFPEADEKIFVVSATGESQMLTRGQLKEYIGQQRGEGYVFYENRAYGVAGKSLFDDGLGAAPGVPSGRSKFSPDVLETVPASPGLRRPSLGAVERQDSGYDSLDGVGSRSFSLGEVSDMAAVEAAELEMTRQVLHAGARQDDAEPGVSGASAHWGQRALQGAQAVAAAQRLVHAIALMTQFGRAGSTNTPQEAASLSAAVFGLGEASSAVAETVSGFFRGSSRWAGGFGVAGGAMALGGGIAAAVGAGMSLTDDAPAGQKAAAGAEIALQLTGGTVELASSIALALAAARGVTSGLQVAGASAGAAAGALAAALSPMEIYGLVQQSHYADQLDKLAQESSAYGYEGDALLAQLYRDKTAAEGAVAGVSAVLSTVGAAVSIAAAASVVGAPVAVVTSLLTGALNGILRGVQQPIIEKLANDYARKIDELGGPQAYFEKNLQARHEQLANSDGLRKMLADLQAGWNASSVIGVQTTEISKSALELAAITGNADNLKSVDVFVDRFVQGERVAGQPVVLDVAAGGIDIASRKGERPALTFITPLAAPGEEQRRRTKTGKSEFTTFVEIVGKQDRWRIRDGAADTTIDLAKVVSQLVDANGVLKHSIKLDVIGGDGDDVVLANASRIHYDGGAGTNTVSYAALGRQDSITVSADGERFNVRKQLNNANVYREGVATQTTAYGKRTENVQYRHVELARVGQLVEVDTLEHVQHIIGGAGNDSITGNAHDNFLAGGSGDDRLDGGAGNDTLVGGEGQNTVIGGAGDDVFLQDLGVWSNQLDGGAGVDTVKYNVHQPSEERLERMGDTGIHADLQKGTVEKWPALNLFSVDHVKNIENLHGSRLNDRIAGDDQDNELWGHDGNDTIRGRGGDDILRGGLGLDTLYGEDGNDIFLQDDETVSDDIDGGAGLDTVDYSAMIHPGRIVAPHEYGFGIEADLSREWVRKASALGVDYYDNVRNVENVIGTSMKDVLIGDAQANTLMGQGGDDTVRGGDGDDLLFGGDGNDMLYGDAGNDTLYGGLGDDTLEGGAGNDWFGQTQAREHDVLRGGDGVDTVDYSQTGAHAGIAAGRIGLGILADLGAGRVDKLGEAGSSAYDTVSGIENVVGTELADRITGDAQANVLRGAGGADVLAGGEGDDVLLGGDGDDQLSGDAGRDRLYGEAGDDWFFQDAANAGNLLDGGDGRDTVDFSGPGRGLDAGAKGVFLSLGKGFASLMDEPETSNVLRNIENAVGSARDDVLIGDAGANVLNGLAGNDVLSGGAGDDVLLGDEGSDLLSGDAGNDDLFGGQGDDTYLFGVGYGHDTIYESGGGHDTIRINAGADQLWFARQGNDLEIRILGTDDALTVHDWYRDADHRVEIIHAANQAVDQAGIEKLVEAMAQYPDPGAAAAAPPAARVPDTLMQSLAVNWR
Sequence of CyaA CC activity (P0DKX7 whole entry, looked up): as above

Row | Compound | Ki [1] [µM] | Ki [2] [µM] | Ki [3] [µM] | Ki [4] [µM] | Ki [5] [µM]
1 | MANT-ATP | 4.3 ± 0.4 | 4.4 ± 0.1 |  |  | 
2 | Nc1ncnc2c1ncn2CCOCP(=O)(O)OP(=O)(O)OP(=O)(O)O [PMEApp, [9-[2-(Phosphonomethoxy)ethyl]adenine diphosphate]] |  |  | 0.0045 ± 0.0004 | 0.002 ± 0.0005 | 
3 | MANT-GTP | 5.9 ± 1 | 6.1 ± 2 | 2.8 ± 0.4 |  | 2.5 ± 0.1
